From ChEMBL document CHEMBL3044704, “Synthesis, characterization, antioxidant, and anticancer studies of 6-[3-(4-chlorophenyl)-1H-pyrazol-4-yl]-3-[(2-naphthyloxy)methyl][1,2,4]triazolo[3,4-b][1,3,4]thiadiazole in HepG2 cell lines” (Med Chem Res, 2011)
Converted amounts (≈) assume the structure as drawn. One block for each compound: values may come before it. The source made the active and inactive calls. The calls are words filed in the database; no cut-off is given here.

Legend:
HepG2 [1] = assay: Induction of cell cycle arrest in Homo sapiens (human) HepG2 cells assessed as subG1 phase cells at 0.08 ug/ml after 24 hr by flow cytometric analysis (reference value: 3.57 +/- 0.03%); format: functional
HepG2 [2] = assay: Induction of cell cycle arrest in Homo sapiens (human) HepG2 cells assessed as increase in subG1 phase cells after 24 hr by flow cytometric analysis; format: functional, cell-based
HepG2 [3] = assay: Induction of cell cycle arrest in Homo sapiens (human) HepG2 cells assessed as G2/M phase cells at 0.08 ug/ml after 24 hr by flow cytometric analysis (reference value: 12.92 +/- 0.27%); format: functional
HepG2 [4] = assay: Induction of cell cycle arrest in Homo sapiens (human) HepG2 cells assessed as S phase cells at 0.08 ug/ml after 24 hr by flow cytometric analysis (reference value: 32.84 +/- 1.06%); format: functional
HepG2 [5] = assay: Induction of cell cycle arrest in Homo sapiens (human) HepG2 cells assessed as G1 phase cells at 0.08 ug/ml after 24 hr by flow cytometric analysis (reference value: 50.68 +/- 1.42%); format: functional
HepG2 [6] = assay: Induction of cell cycle arrest in Homo sapiens (human) HepG2 cells assessed as G2/M phase cells at 0.06 ug/ml after 24 hr by flow cytometric analysis (reference value: 12.92 +/- 0.27%); format: functional
HepG2 [7] = assay: Induction of cell cycle arrest in Homo sapiens (human) HepG2 cells assessed as S phase cells at 0.06 ug/ml after 24 hr by flow cytometric analysis (reference value: 32.84 +/- 1.06%); format: functional
HepG2 [8] = assay: Cytotoxicity against Homo sapiens (human) HepG2 cells after 24 hr by MTT assay; format: functional, cell-based; settings: HepG2, 24 h
HepG2 [9] = assay: Cytotoxicity against Homo sapiens (human) HepG2 cells assessed as inhibition of [3H]thymidine incorporation incubated for 3 hr prior to [3h]thymidine incorporation measured after 2 hr by liquid scintillation counting; format: functional, cell-based
HepG2 [10] = assay: Induction of cell cycle arrest in Homo sapiens (human) HepG2 cells assessed as subG1 phase cells at 0.06 ug/ml after 24 hr by flow cytometric analysis (reference value: 3.57 +/- 0.03%); format: functional
HepG2 [11] = assay: Induction of cell cycle arrest in Homo sapiens (human) HepG2 cells assessed as G1 phase cells at 0.06 ug/ml after 24 hr by flow cytometric analysis (reference value: 50.68 +/- 1.42%); format: functional
[12] = Antioxidant activity assessed as inhibition of ABTS radical production after 20 min by spectrophotometric analysis; format: functional
[13] = tested on: Radical scavenging activity; assay: Antioxidant activity assessed as inhibition of DPPH radical production after 20 min by spectrophotometric analysis; format: functional
HepG2 [14] = assay: Cytotoxicity against Homo sapiens (human) HepG2 cells assessed as chromatin condensation after 24 hr by Hoechst-staining method; format: functional, cell-based

IC50 [13]: 1.023 µg/mL (≈ 2.23 µM)
Structure (SMILES): Clc1ccc(-c2n[nH]cc2-c2nn3c(COc4ccc5ccccc5c4)nnc3s2)cc1
Activity (HepG2 [1]): 12.33% | Activity (HepG2 [2]): Dose-dependent effect | Activity (HepG2 [3]): 11.33% | Activity (HepG2 [4]): 23.68% | Activity (HepG2 [5]): 52.65% | Activity (HepG2 [6]): 10.58% | Activity (HepG2 [7]): 28.82% | IC50 (HepG2 [8]): 0.8 µg/mL (≈ 1.74 µM) | inhibition (HepG2 [9]): Dose-dependent effect | Activity (HepG2 [10]): 4% | Activity (HepG2 [11]): 56.59% | inhibition [12]: Active | Activity (HepG2 [14]): Dose-dependent effect

IC50 [13]: 1.46 µg/mL (≈ 8.29 µM)
Structure (SMILES): O=C1O[C@H]([C@@H](O)CO)C(O)=C1O [ASCORBIC ACID]
inhibition [12]: Active
